Laboratory results published in DBAASP.
In brackets after ≈: the same amount, converted by molar mass. Values belong to the compound of their own block, whether it stands above or below them.

Assays:
Assay in all cases: ≥ marks a high value that may be exact or a test limit, other limits are often not marked, values filed in µg/mL are converted to µM
[1] = test system: Candida albicans ATCC 2002
[2] = test system: Bacillus subtilis
[3] = test system: Escherichia coli ATCC 25922
[4] = test system: Staphylococcus aureus ATCC 2592
[5] = test system: Candida albicans ATCC 90028
[6] = test system: Staphylococcus aureus NCTC 8325
[7] = test system: Escherichia coli MG1655
[8] = test system: Staphylococcus aureus ATCC 25923
[9] = test system: Candida albicans
[10] = test system: Pseudomonas aeruginosa PAO1
[11] = test system: Pseudomonas aeruginosa ATCC 27853
[12] = test system: Escherichia coli ATCC 35218
[13] = test system: Pseudomonas aeruginosa CMCCB 10104
[14] = test system: Pseudomonas aeruginosa
[15] = test system: Salmonella enterica serovar Typhimurium
[16] = test system: Staphylococcus aureus
[17] = test system: Escherichia coli UB1005
[18] = test system: Escherichia coli
[19] = test system: Acinetobacter baumannii

Structure (SMILES): CSCC[C@H](NC(=O)[C@@H](NC(=O)[C@H](CCCCN)NC(=O)[C@H](Cc1cnc[nH]1)NC(=O)[C@H](CC(C)C)NC(=O)CN)C(C)C)C(=O)N[C@@H](CCCN=C(N)N)C(=O)N[C@@H](CCC(=O)O)C(=O)N[C@H](C(=O)N[C@@H](CC(C)C)C(=O)NCC(=O)N[C@@H](Cc1ccc(O)cc1)C(=O)N[C@@H](CCC(=O)O)C(=O)N[C@@H](CCCN=C(N)N)C(=O)N[C@@H](CC(N)=O)C(=O)N[C@@H](CO)C(=O)N[C@@H](Cc1ccc(O)cc1)C(=O)N[C@@H](CCCCN)C(N)=O)C(C)C [GLHKVMREVLGYERNSYK]
- MIC [7]: ≥ 128 µM
- MIC [8]: > 128 µM
- MIC [9]: > 128 µM
- MIC [10]: > 128 µM

Structure (SMILES): CC[C@H](C)[C@H](NC(C)=O)C(=O)N[C@@H](CC(=O)O)C(=O)NCC(=O)N[C@@H](CC(C)C)C(=O)N[C@@H](CCCCN)C(=O)N[C@@H](C)C(=O)N[C@H](C(=O)N[C@@H](Cc1c[nH]c2ccccc12)C(=O)N[C@@H](CCCCN)C(=O)N[C@@H](CCCCN)C(=O)N[C@H](C(=O)N[C@@H](C)C(=O)N[C@@H](CC(=O)O)C(=O)N[C@@H](CC(C)C)C(=O)N[C@@H](CC(C)C)C(=O)N[C@@H](CCCCN)C(=O)N[C@@H](CC(N)=O)C(=O)N[C@H](C(N)=O)[C@@H](C)O)C(C)C)[C@@H](C)CC [IDGLKAIWKKVADLLKNT]
- MIC [11]: 72.5 µM (≈ 150 µg/mL)
- MIC [8]: > 72.5 µM
- MIC [12]: 9 µM (≈ 18.6 µg/mL)

Structure (SMILES): CC[C@H](C)[C@H](NC(=O)[C@H](Cc1ccccc1)NC(=O)[C@H](CCCCN)NC(=O)[C@H](CCCCN)NC(=O)[C@H](Cc1c[nH]c2ccccc12)NC(=O)[C@@H](N)CCCCN)C(=O)N[C@@H](CCCCN)C(=O)N[C@@H](CO)C(=O)N[C@@H](CC(C)C)C(=O)N[C@H](C(=O)N[C@@H](CCCCN)C(=O)N[C@@H](CO)C(=O)N[C@@H](C)C(=O)N[C@@H](C)C(=O)N[C@@H](CCCCN)C(=O)N[C@H](C(=O)N[C@H](C(=O)N[C@H](C(=O)N[C@@H](CCCCN)C(=O)N[C@H](C(=O)N[C@@H](C)C(=O)N[C@@H](CCCCN)C(=O)N[C@@H](CCCCN)C(=O)N1CCC[C@H]1C(=O)N[C@@H](CC(C)C)C(=O)N[C@H](C(=O)N[C@H](C(N)=O)C(C)C)[C@@H](C)CC)[C@@H](C)O)C(C)C)C(C)C)[C@@H](C)O)[C@@H](C)O [KWKKFIKSLTKSAAKTVVKTAKKPLIV]
- MIC [14]: 0.93 µM (≈ 2.83 µg/mL)
- MIC [15]: 0.986 µM (≈ 3 µg/mL)
- MIC [16]: > 21 µM
- MIC [17]: 0.329 µM (≈ 1 µg/mL)
- MIC [10]: 1.31 µM (≈ 4 µg/mL)

Structure (SMILES): CC[C@H](C)[C@H](NC(=O)[C@H](CO)NC(=O)CNC(=O)[C@@H](NC(=O)[C@@H](N)C(C)C)[C@@H](C)CC)C(=O)N[C@@H](CC(C)C)C(=O)NCC(=O)N[C@@H](C)C(=O)N[C@@H](CC(C)C)C(=O)N[C@@H](C)C(=O)N[C@@H](CO)C(=O)NCC(=O)N[C@@H](CC(C)C)C(=O)N1CCC[C@H]1C(=O)N[C@H](C(=O)N[C@@H](CC(C)C)C(=O)N[C@H](C(=O)N[C@@H](CO)C(=O)N[C@@H](Cc1c[nH]c2ccccc12)C(=O)N[C@H](C(=O)N[C@@H](CCCCN)C(=O)N[C@@H](CC(N)=O)C(=O)N[C@@H](CCCN=C(N)N)C(N)=O)[C@@H](C)CC)[C@@H](C)CC)[C@@H](C)O [VIGSILGALASGLPTLISWIKNR]
- MIC [3]: 25 µM (≈ 59.5 µg/mL)
- MIC [5]: 25 µM (≈ 59.5 µg/mL)
- MIC [6]: 6 µM (≈ 14.3 µg/mL)

Structure (SMILES): CC(C)[C@H](N)C(=O)N[C@@H](CCCCN)C(=O)N[C@@H](CCCN=C(N)N)C(=O)N[C@@H](Cc1ccccc1)C(=O)N[C@@H](CCCCN)C(=O)N[C@@H](CCCCN)C(=O)N[C@@H](Cc1ccccc1)C(=O)N[C@@H](Cc1ccccc1)C(=O)N[C@@H](CCCN=C(N)N)C(=O)N[C@@H](CCCCN)C(=O)N[C@@H](Cc1ccccc1)C(=O)N[C@@H](CCCCN)C(=O)N[C@@H](CCCCN)C(=O)N[C@@H](CO)C(=O)N[C@H](C(N)=O)C(C)C [VKRFKKFFRKFKKSV]
- MIC [1]: 4.75 µM (≈ 9.38 µg/mL)
- MIC [2]: ≥ 50.7 µM
- MIC [3]: 19 µM (≈ 37.5 µg/mL)
- MIC [4]: ≥ 50.7 µM

Structure (SMILES): CC[C@H](C)[C@H](NC(=O)[C@H](CCCN=C(N)N)NC(=O)[C@@H](NC(=O)[C@H](CCCN=C(N)N)NC(=O)[C@H](Cc1c[nH]c2ccccc12)NC(=O)[C@H](CCC(N)=O)NC(=O)[C@@H](N)C(C)C)[C@@H](C)CC)C(=O)N[C@@H](C)C(=O)N[C@H](C(=O)N[C@H](C(=O)N[C@@H](CCCN=C(N)N)C(=O)N[C@@H](C)C(=O)O)[C@@H](C)CC)C(C)C [VQWRIRIAVIRA]
- MIC [14]: 30.6 µM (≈ 45.3 µg/mL)
- MIC [15]: 2.7 µM (≈ 4 µg/mL)
- MIC [16]: 15.3 µM (≈ 22.6 µg/mL)
- MIC [3]: 5.4 µM (≈ 8 µg/mL)
- MIC [18]: 43.2 µM (≈ 64 µg/mL)
- MIC [8]: 5.4 µM (≈ 8 µg/mL)
- MIC [19]: 21.6 µM (≈ 32 µg/mL)
- MIC [10]: 21.6 µM (≈ 32 µg/mL)

Structure (SMILES): CC[C@H](C)[C@H](NC(=O)[C@H](CCCN=C(N)N)NC(=O)[C@H](Cc1c[nH]c2ccccc12)NC(=O)[C@H](CCC(N)=O)NC(=O)[C@@H](N)C(C)C)C(=O)N[C@@H](CCCN=C(N)N)C(=O)N[C@H](C(=O)N[C@@H](CS)C(=O)N[C@H](C(=O)N[C@H](C(=O)N[C@@H](CCCN=C(N)N)C(=O)N[C@@H](C)C(=O)O)[C@@H](C)CC)C(C)C)C(C)C [VQWRIRVCVIRA]
- MIC [15]: 21.3 µM (≈ 32 µg/mL)
- MIC [3]: 21.3 µM (≈ 32 µg/mL)
- MIC [8]: 21.3 µM (≈ 32 µg/mL)
- MIC [10]: 21.3 µM (≈ 32 µg/mL)

The next lines start with the values.

- MIC [1]: 1.23 µM (≈ 1.6 µg/mL)
- MIC [2]: 2.38 µM (≈ 3.1 µg/mL)
- MIC [3]: 19.2 µM (≈ 25 µg/mL)
- MIC [4]: 2.38 µM (≈ 3.1 µg/mL)
Structure (SMILES): CC[C@H](C)[C@H](NC(=O)[C@H](CCCCN)NC(=O)CNC(=O)[C@H](CC(C)C)NC(=O)[C@H](CC(C)C)NC(=O)[C@H](CO)NC(=O)[C@H](C)NC(=O)[C@H](CC(C)C)NC(=O)[C@H](CC(C)C)NC(=O)CNC(=O)CNC(=O)[C@H](CC(C)C)NC(=O)[C@@H](N)Cc1ccccc1)C(=O)O [FLGGLLASLLGKI]

- MIC [3]: > 150 µM
- MIC [5]: ≥ 150 µM
- MIC [6]: ≥ 125 µM
Structure (SMILES): CC[C@H](C)[C@H](NC(=O)[C@H](CC(C)C)NC(=O)[C@H](CC(N)=O)NC(=O)[C@@H](NC(=O)[C@H](CC(C)C)NC(=O)[C@@H](NC(=O)[C@@H]1CCCN1C(=O)[C@H](CC(C)C)NC(=O)[C@@H](N)Cc1ccccc1)[C@@H](C)CC)[C@@H](C)CC)C(=O)N[C@@H](Cc1cnc[nH]1)C(=O)N[C@@H](CCCCN)C(=O)NCC(=O)N[C@@H](CC(C)C)C(=O)N[C@@H](CC(C)C)C(N)=O [FLPILINLIHKGLL]

- MIC [6]: 6 µM (≈ 8.25 µg/mL)
Structure (SMILES): CC[C@H](C)[C@H](NC(=O)[C@H](C)NC(=O)[C@H](CO)NC(=O)[C@H](CC(C)C)NC(=O)[C@@H](N)Cc1ccccc1)C(=O)N[C@H](C(=O)N[C@@H](CO)C(=O)N[C@@H](CC(C)C)C(=O)N[C@@H](CC(C)C)C(=O)NCC(=O)N[C@@H](CCCCN)C(=O)N[C@@H](CC(C)C)C(=O)N[C@@H](CC(C)C)C(N)=O)[C@@H](C)O [FLSAITSLLGKLL]

- MIC [13]: 2.03 µM (≈ 4 µg/mL)
- MIC [1]: 1.02 µM (≈ 2 µg/mL)
- MIC [3]: 10.2 µM (≈ 20 µg/mL)
- MIC [4]: 1.02 µM (≈ 2 µg/mL)
Structure (SMILES): CC[C@H](C)[C@H](N)C(=O)N[C@@H](CC(C)C)C(=O)NCC(=O)N1CCC[C@H]1C(=O)N[C@H](C(=O)N[C@@H](CC(C)C)C(=O)N[C@@H](CO)C(=O)N[C@@H](CCSC)C(=O)N[C@H](C(=O)NCC(=O)N[C@@H](CO)C(=O)N[C@@H](C)C(=O)N[C@@H](CC(C)C)C(=O)NCC(=O)NCC(=O)N[C@@H](CC(C)C)C(=O)N[C@H](C(=O)N[C@@H](CCCCN)C(=O)N[C@@H](CCCCN)C(=O)N[C@H](C(N)=O)[C@@H](C)CC)[C@@H](C)CC)C(C)C)C(C)C [ILGPVLSMVGSALGGLIKKI]

- MIC [3]: 30 µM (≈ 54.3 µg/mL)
- MIC [6]: 7 µM (≈ 12.7 µg/mL)
Structure (SMILES): CC[C@H](C)[C@H](N)C(=O)N[C@@H](CC(C)C)C(=O)N1CCC[C@H]1C(=O)N[C@@H](CC(C)C)C(=O)N[C@@H](CC(C)C)C(=O)N[C@@H](CC(C)C)C(=O)NCC(=O)N[C@@H](CCCCN)C(=O)N[C@H](C(=O)N[C@H](C(=O)N[C@H]1CSSC[C@@H](C(=O)O)NC(=O)[C@H](CCCCN)NC(=O)[C@H](CCCCN)NC(=O)[C@H]([C@@H](C)O)NC(=O)[C@H]([C@@H](C)CC)NC(=O)[C@H](C)NC1=O)C(C)C)C(C)C [ILPLLLGKVVCAITKKC]

- MIC [3]: > 100 µM
- MIC [6]: ≥ 100 µM
Structure (SMILES): CC[C@H](C)[C@H](N)C(=O)N[C@@H](CC(C)C)C(=O)N1CCC[C@H]1C(=O)N[C@@H](CC(C)C)C(=O)N[C@H](C(=O)NCC(=O)N[C@@H](CC(N)=O)C(=O)N[C@@H](CC(C)C)C(=O)N[C@@H](CC(C)C)C(=O)N[C@@H](CC(N)=O)C(=O)N[C@@H](CC(=O)O)C(=O)N[C@@H](CC(C)C)C(=O)N[C@@H](CC(C)C)C(N)=O)C(C)C [ILPLVGNLLNDLL]

- MIC [1]: 5.05 µM (≈ 7.5 µg/mL)
- MIC [3]: 10.1 µM (≈ 15 µg/mL)
- MIC [4]: 2.49 µM (≈ 3.7 µg/mL)
Structure (SMILES): CC[C@H](C)[C@H](N)C(=O)N[C@@H](CC(N)=O)C(=O)N[C@@H](Cc1c[nH]c2ccccc12)C(=O)N[C@@H](CCCCN)C(=O)NCC(=O)N[C@H](C(=O)N[C@@H](C)C(=O)N[C@@H](C)C(=O)N[C@@H](CCSC)C(=O)N[C@@H](CCCCN)C(=O)N[C@@H](CCCCN)C(=O)N[C@@H](CC(C)C)C(=O)N[C@@H](CC(C)C)C(N)=O)[C@@H](C)CC [INWKGIAAMKKLL]
